# Test results taken from patent US10889812B2, “Short non-coding protein regulatory RNAs (sprRNAs) and methods of use” (University of Maryland, Baltimore, priority 2014, dated 2021).
# “Also recorded” adds a separate entry of the source. m = 2'-O-methyl; r = 2'-OH (RNA)
# What was measured:
# p-ERM = experiment: IP with anti-p-ERM antibody followed by RT-PCR in transfected H1792 cells; format: binding, human; settings: H1792 cells transfected with the oligonucleotide
# Description: We next wanted to determine the site critical for piR-L-163's binding toP-ERM. We first analyzed the piR-L-163 sequence and identified a candidate motif “UUNNUUUNNUU” (SEQ ID NO:495) with potentially critical for the binding (FIG. 5a). We then generated 5 mutant forms of piR-L-163 named as M1-M5 (FIG. 5b and Table 3) to test their potential impact on the p-ERM binding. For this experiment, we used H1792 cells because these cells expressed extremely low level of endogenous piR-L-163 but considerable amount of p-ERM (FIG. 5c and FIG. 11a). H1792 cells were transfected with Scr (control), Ant-163, piR-L-163 (WT), or Mutant 1 (M1) to Mutant 5 (M5) RNA oligonucletides, respectively. An anti-p-ERM antibody was used for IP followed by RT-PCR using primers specific for Scr, Ant-163, piR-L-163, or M1-M5 (Table 6) to detect the corresponding oligonucleotides.
# To amplify sncRNAs, we added an adaptor to the 3′ end, a process including adaptor ligation, RT and PCR (de Vanssay, A. et al. Paramutation in Drosophila linked to emergence of a piRNA-producing locus. Nature 490, 112-115 (2012); Li, Z. et al. Characterization of viral and human RNAs smaller than canonical MicroRNAs. J Virol. 83, 12751-12758 (2009)). For adaptor ligation, the adaptor /5′rapp/CTGTAGGCACCATCAAT/3′ddc/ (SEQ ID NO:499) with both 5′ and 3′ modification was used. Briefly, mixed 1 μl (10 pmol, ˜55 ng) of RNA 3′ adaptor and 4.4 μl (˜100 ng) of purified sncRNAs in a 1.5 ml EP tube; Incubated at 72° C. for 2 min, then placed on ice immediately and kept it on ice for at least 1 min; Added the following reagents (New England Biolabs) to the above tube: 0.8 μl 10×RNA ligase buffer, 1 μl RNase inhibitor, and 1 μl single strand RNA ligase; Mixed it well and incubated at 37° C. for 1 hr, then terminated the reaction at 65° C. for 15 min. For RT, SuperScript™ III First-Strand Synthesis System (Invitrogen) was used according to the manufacturer's instructions with gene specific primer (5′-[…]-3′) (SEQ ID NO:500). For PCR, a common reverse primer (5′-[…]-3′) (SEQ ID NO:501) and primers specific for individual sncRNAs (Table 6). Amplification conditions were denaturation at 95° C. for 30 s (5 min for the first cycle), annealing at 60° C. for 20 s and extension at 72° C. for 20 s (2 min for the last cycle) for 25 cycles.
# For IP using anti-human Moesin or p-ERM antibodies, anti-Moesin (Clone Q480, Catalog No. 3150, Cell Signaling) or anti-p-ERM (Clone 41A3, Catalog No. 3149, Cell Signaling) antibodies were used and a rabbit IgG was used as a control. Briefly, Saturated protein G agarose beads (Sigma-Aldrich) with rabbit IgG, anti-Moesin or anti-p-ERM antibodies, respectively (1 μg antibody was used for 4 μl agarose beads) at 4° C. for 3 hrs, centrifuged at 2,200×g for 5 min, and discarded the upper aqueous phase; (2) Protein extracts prepared from cells using lysis buffer (20 mM Tris-cl, pH7.6, 150 mM NaCl, 20 mM KCl, 1.5 mM MgCl2, 0.5% NP-40, 0.5 mM PMSF) were pre-cleared using protein G agarose at 4° C. for 2 hrs, centrifuged at 2,200×g for 5 min, and transferred the upper aqueous phase to above tubes with agarose beads saturated with antibodies, respectively; Kept the tubes rotating overnight at 4° C., centrifuged at 2,200×g for 5 min, and washed the beads with lysis buffer twice; Extracted total RNAs from beads using Trizol Reagent (Life Technologies); Amplification of piR-L-163 or its mutants was performed according to the steps described in the “RT-PCR” section.
# H1792 cells = experiment: Trans-well invasion assay; format: cell-based, human; settings: H1792, vs control RNA oligonucleotides
# Description: We then tested the potential impact of piR-L-163 in cell migration and invasion, two of the properties involving ERM's biological functions (Fehon, R. G., Mclatchey, A. I. & Bretscher, A. Organizing the cell cortex: the role of ERM proteins. Nat Rev Mol Cell Biol. 11, 276-287 (2010); Hunter, K. W. Ezrin, a key component in tumor metastasis. Trends Mol. Med. 10, 201-204 (2004); Luo, Y. et al. Recognition of CD146 as an ERM-binding protein offers novel mechanisms for melanoma cell migration. Oncogene 31, 306-321 (2013); Clucas, J. & Valderrama, F. ERM proteins in cancer progression. J Cell Sci. 128, 1253 (2015)).
# Briefly, 24 hrs after transfection, 6×10^4 cells were placed in the upper chamber of Matrigel Invasion Chambers (BD Bioscience) with growth factor-free Keratinocyte-SFM and the bottom chamber were exposed to Keratinocyte-SFM medium supplemented with L-Glutamine, prequalified human recombinant EGF 1-53 and BPE. Invading cells were evaluated after 12 hrs according to the manufacturer's instruction. The numbers of invading cells were adjusted 15% downwards for Ant-163 treated cells or 15% upwards for piR-L-163 treated cells to compensate the differences for the proliferation rates.
# MDM2 = experiment: Western blot of MDM2 cleavage and phosphorylation in SCC cells; format: cell-based, human; settings: SCC cells transfected, vs Scr RNA
# Description: Primary antibodies used were: anti-Moesin (1:1,000, Clone Q480, Catalog No. 3150, Cell Signaling), anti-p-ERM (Clone 41A3, Catalog No. 3149, Cell Signaling), anti-Moesin (Clone 38/Moesin, Catalog No. 610401, BD Transduction Laboratories), anti-p-Moesin (Thr558, Catalog No. 12895, Sanra Cruz), anti-β-actin (1:5,000, Catalog No. A228, Sigma-Aldrich), anti-EBP50 (1:100, Clone 6/EBP50, Catalog No. 61160, BD Transduction Laboratories), anti-F-actin (1:100, Clone NH3, Catalog No. MA1-80729, Thermor Fisher), anti-p-Wee 1 (Se53, 1:1000, Catalog No. sc-130223, Sanra Cruz), anti-Wee 1 (C-20, 1:1000, Catalog No. sc-325, Sanra Cruz), anti-p-Cdc2 (Tyr15, 1:1000, Catalog No. 9111, Cell Signaling), anti-p-Cdk (Thr14/Tyr15-R, 1:1000, Catalog No. sc-28435-R, Sanra Cruz), anti-Cdc2 p34 (H-297, 1:1000, Catalog No. sc-747, Sanra Cruz), anti-p-Cdc25C (Ser198, 1:1000, Catalog No. 9529, Cell Signaling), anti-CDK2 (78B2, 1:1000, Catalog No. 2546, Cell Signaling), anti-p-Histone H2AX (Ser139, 20E3, :1000, Catalog No. 9718, Cell Signaling), and anti-GFP (N-terminal, 1:4000, Catalog No. G1544, Sigma). Secondary antibodies used were: Goat anti-Mouse (1:2,500, Catalog No. 31160, Pierce), and Goat anti-Rabbit (1:2,500, Catalog No. 31460, Pierce). Cells were lysed in RIPA buffer (Sigma) on ice after washed in PBS twice, centrifuge at […] for 10 min at 4° C. Protein in supernatant was qualified using BCA™ protein assay kit (Thermo Scitific) and denatured in SDS loading buffer in boiling water, run 10% SDS-PAGE gel and transferred to nitrocellulose membrane (Thermo Scitific). […]
# Next, we wanted to explore potential mechanism of piR-L-138-mediated apoptosis inhibition in CDDP treated lung SCC cells. We first analyzed cleaved PARP, a protein marker indicative of apoptosis, and found it was increased in the SCC cells pre-treated with Ant-138 compared with Scr pre-treated cells (FIG. 15d). As both of the SCC cell lines harbor p53 mutations, we analyzed mouse double minute 2 homolog (MDM2) which has been implicated in apoptosis including p53-independent pathway (Bohlman S, Manfredi J J. p53-independent effects of Mdm2. Subcell Biochem. 85,235-46 (2014); Bouska A, Eischen C M. Mdm2 affects genome stability independent of p53. Cancer Res. 69, 1697-701 (2009); Zhang, Z., Li, M., Wang, H., Agrawal, S., and Zhang, R. Antisense therapy targeting MDM2 oncogene in prostate cancer: Effects on proliferation, apoptosis, multiple gene expression, and chemotherapy. Proc. Natl. Acad. Sci. 100, 11636-11641 (2003); Zhang Z, Wang H, Li M, Agrawal S, Chen X, Zhang R. MDM2 Is a Negative Regulator of p21WAF1/CIP1, Independent of p53. […]
Substance,oligonucleotide detected by RT-PCR in anti-p-ERM IP products (binding to p-ERM) (p-ERM),also measured
"M1: mutant form of piR-L-163, RNA oligonucleotide, SEQ ID NO:519 (AUAUCAUGAUGACACGACGACACUCUGACC; (30)..(30) 2′-O-methylation)",no RT-PCR band could be detected,invasion capability (H1792 cells): no impact
"M2: mutant form of piR-L-163, RNA oligonucleotide, SEQ ID NO:520 (AUAUCAUGAUGUUACGACGAUUCUCUGACC; sugars from the 5' end r29 m1, backbone not given here; further chemistry not fully specified)",no RT-PCR band could be detected,–
"M3: mutant form of piR-L-163, RNA oligonucleotide, SEQ ID NO:521 (AUAUCAUGAUGUUACGCUGAUUCUCUGACC; sugars from the 5' end r29 m1, backbone not given here; further chemistry not fully specified)",RT-PCR bands with expected sizes were detected; also recorded: substantially weaker,–
"M4: mutant form of piR-L-163, RNA oligonucleotide, SEQ ID NO:522 (AUAUCAUGAUGUUACUCUGAUUCUCUGACC; sugars from the 5' end r29 m1, backbone not given here; further chemistry not fully specified)",RT-PCR bands with expected sizes were detected,–
"M5: mutant form of piR-L-163, RNA oligonucleotide, SEQ ID NO:523 (AUUUCAUGAUGUUACUUUGAUUCUCUGACC; sugars from the 5' end r29 m1, backbone not given here; further chemistry not fully specified)",RT-PCR bands with expected sizes were detected,–
"Scr: scrambled DNA or RNA oligonucleotides used as control (SEQ ID NO:506 DNA, SEQ ID NO:524 RNA) (DNA GATACCAGGGACATACGCTTGATCCTAGC; chain GAUACCAAGGACAUACGCUUAUGCAUGCUA; DNA: DNA, backbone and methylation of C not given here; chain: chemistry not given here) [reference compound]",no RT-PCR band could be detected,–
"piR-L-138: sprRNA, SEQ ID NO:268; piRNA-L down-regulated in NSCLC cells, up-regulated upon cisplatin (ACUUUAGCUCUAGAAUUACUCUGAGACCU; expressed or natural sequence; listed as Homo sapiens)",–,MDM2 cleavage (MDM2): enhanced MDM2 cleavage; Serine-166 phosphorylation in cleaved MDM2 (MDM2): reduced Serine-166 phosphorylation in cleaved MDM2
